Reference: patent US20230303647A1, “CYCLIC CHEMERIN-9 DERIVATIVES” (priority 2020, published 2023)
Entries after “also recorded” stand apart in the source; their conditions may differ. One block for each compound: values may come before it. *1 amine or outer side, *2 acyl side, *3 side chain or, on linkers, in order; H or OH if unused. Where a SMILES comes first, the peptide text is derived from it. Bridges are numbered along the chain shown (N, C = ends). [ ]: non-standard residue; d: D form. The star is where a group is joined. ξ: configuration not given here. X1 = CN(C)c1ccc2c(-c3cc(C(=O)*)ccc3C(=O)[O-])c3ccc(=[N+](C)C)cc-3oc2c1; X2 = CN(C)c1ccc2c(-c3cc(C(=O)*)ccc3C(=O)O)c3ccc(=[N+](C)C)cc-3oc2c1; PEG4 = NCCOCCOCCOCCOCCC(=O)O; d(hCys) = N[C@H](CCS)C(=O)O; hCys = N[C@@H](CCS)C(=O)O; ξF = NC(Cc1ccccc1)C(=O)O; CH2 = C([*:1])[*:2]; ξC = NC(CS)C(=O)O

Key:
[1] = target: T1, CMKLR1 (Homo sapiens, UniProt Q99788); test: Ca2+ mobilization assay (G protein-mediated signaling); conditions: for G protein signaling activity (in words): Ca2+ mobilization assay
T1 sequence (Q99788 1-373): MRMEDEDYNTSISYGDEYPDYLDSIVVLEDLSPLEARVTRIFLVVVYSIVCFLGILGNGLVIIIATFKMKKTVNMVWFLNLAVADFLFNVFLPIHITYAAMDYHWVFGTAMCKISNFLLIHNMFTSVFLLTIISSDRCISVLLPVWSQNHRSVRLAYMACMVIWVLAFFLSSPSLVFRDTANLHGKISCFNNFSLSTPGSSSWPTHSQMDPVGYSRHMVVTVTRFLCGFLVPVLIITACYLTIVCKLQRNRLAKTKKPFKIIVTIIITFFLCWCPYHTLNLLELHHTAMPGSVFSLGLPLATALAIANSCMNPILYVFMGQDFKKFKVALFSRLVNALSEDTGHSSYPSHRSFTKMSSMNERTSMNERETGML
Description: COS-7 cells were transfected in 75 cm^2 cell culture flasks with 12 μg of the hCMKLR1_eYFP_GαΔ6qi4myr_pV2 plasmid overnight using Metafectene Pro. Transfected cells were seeded in 96 well plates (100 μL cell suspension in DMEM+10% FBS/well) and incubated overnight. The following day, the Ca^2+-mobilization was performed as described previously. […] All experiments were performed in triplicates, each experiment was repeated at least twice. Nonlinear regression was calculated using GraphPad Prism 5.

[2] = Plasma stability assay of Tam-labeled peptides; conditions: for half-life: human; for stability in blood plasma: over a time period of 24 h
Description: Investigation of peptide stability in blood plasma was carried out as described previously. […] Samples taken at the respective time points were added to a solution of 0.1% SDS in ACN/EtOH (1:1). After incubation at −20° C. for 20 min, the supernatant was transferred to a new tube and incubated again at −20° C. for at least 3 h. The solution was filtered by centrifugation using Costar Spin-X tubes (0.22 μm) and the filtrate was analyzed by RP-HPLC on a VariTide RPC. […] Peaks were integrated and the peak containing the intact peptide was normalized to the sample taken at t=0 min (100%).

[3] = target: T1, CMKLR1; test: BRET-based arrestin 3 recruitment assay; conditions: for arrestin 3 recruitment to the CMKLR1 (in words): BRET, compared with chemerin-9; for Emax: read-out: Emax [%] ± SEM
Description: HEK293 cells were transiently transfected using 75 cm^2 cell culture flasks with cell monolayers (confluency of ˜80%). Plasmid DNA of the C-terminally eYFP tagged human CMKLR1 and the chimeric G protein GαΔ6qi4myr in a pVitro2 vector (7.8 μg) and Renilla-luciferase 8-tagged Arrestin 3 in pcDNA3 (0.2 μg) and 24 μl MetafectenePro were separately added to 900 μl DMEM/Ham's F12 and incubated for 10 min before unification and incubation at RT for 20 min. […] The plasmid solution was added and cells were incubated overnight before seeding. Cell seeding was carried out in white 96-well polystyrene cell culture microplates, coated with poly-D lysine. […] Afterwards, the cells were incubated overnight at 37° C. The assay was performed under unsterile conditions. […] Afterwards, the cells were stimulated with the peptides in different concentrations (10^−5 to 10^−12 M) dissolved in BRET buffer. 50 μl of the peptide dilution were used for cell stimulation. Buffer without peptide was used as a negative control. […] The values of the negative control were subtracted, non-linear regression was calculated using GraphPad Prism. […] All measurements were performed in four technical replicates, all experiments were repeated at least twice.
The bioluminescence resonance energy transfer (BRET) assay was used to determine the potency of cyclic chemerin variants to recruit arrestin 3 to the CMKLR1 receptor after stimulation. HEK293 cells were transiently transfected with CMKLR1 receptor fused with eYFP fluorophore and Arrestin 3 tagged with Rluc8 luciferase. The transfected cells were seeded, incubated with the luciferase substrate coelenterazine-h and stimulated with different peptide concentrations, resulting in measurable BRET signals.

[4] = target: T1, CMKLR1; test: Fluorescence microscopy of CMKLR1 internalization and arrestin 3 recruitment; assay type: cell-based; parameters: expressed in transfected cells; host or cells: HEK293; conditions: HEK293 cells, 1 μM peptide, 30 min stimulation
Description: Ibidi 15μ-slides were coated with poly D-lysine before cell seeding. Cells were washed with DPBS prior to detachment with 1 ml trypsin/EDTA. […] The cell suspension was diluted to 140,000 cells/200 μl, which were seeded. Incubation was carried out overnight at 37° C. Afterwards, cells were transiently transfected. Plasmid DNA of hCMKLR1_eYFP_GαΔ6qi4myr_pV2 (0.9 μg) and mCherry_Arr3_pcDNA3 (0.1 μg) and 8 μl Lipofectamine were separately added to 100 μl DMEM/Ham's F12 and incubated for 10 min before unification and incubation at RT for 20 min. Incubation was carried out overnight at 37° C. […] The medium was replaced by 200 μl of OptiMEM and the to status was documented. The OptiMEM was then replaced by 200 μl of 1 μM peptide in OptiMEM. Fluorophore excitation was analyzed using different filters, depending on the emission wavelength of the fluorophore and the time of exposure was adjusted to each fluorophore individually. All images were processed identically with the AxioVision software (Carl Zeiss AG, Oberkochen, Germany).
To verify the arrestin-recruitment and analyze the internalization of the CMKLR1 receptor itself, HEK293 cells were used and transiently transfected with fluorescent labeled variants of the two molecules.
FIG. 2: Internalization of CMKLR1 and arrestin 3 recruitment. HEK293 cells expressing the hCMKLR1 (green) and arrestin 3 (Arr3; red) due to transient transfection were used for the internalization studies.

[5] = COS-7 cells transfected with hCMKLR1_eYFP_GαΔ6qi4myr, normalized to chemerin-9
[6] = pEC50 ± SEM, COS-7 cells transfected with hCMKLR1_eYFP_GαΔ6qi4myr, normalized to chemerin-9

SMILES: C[C@@H]1NC(=O)[C@H](Cc2ccccc2)NC(=O)[C@H](CCC(N)=O)NC(=O)[C@H](NC(=O)[C@@H]2CCCN2C(=O)[C@H](Cc2ccccc2)NC(=O)[C@H](Cc2ccc(O)cc2)NC(=O)c2ccc(C(=O)[O-])c(-c3c4ccc(=[N+](C)C)cc-4oc4cc(N(C)C)ccc34)c2)CSCSC[C@@H](C(=O)O)NC(=O)[C@H](Cc2ccccc2)NC1=O [$$ 8, Tam-[c4,C9-TA]-chemerin-9] (X1-YFP[dC]QFAFC-OH; linker 4-9 via CH2)
half-life ([2]; plasma): > 24 h | stability in blood plasma [2]: completely stable

SMILES: CN(C)c1ccc2c(-c3cc(C(=O)NCCCC[C@H]4NC(=O)C(Cc5ccccc5)NC(=O)[C@@H](CCC(N)=O)NC(=O)[C@H](NC(=O)[C@@H]5CCCN5C(=O)[C@@H](Cc5ccccc5)NC(=O)[C@H](N)Cc5ccc(O)cc5)CSSCC(C(=O)O)NC(=O)[C@@H](Cc5ccccc5)NC4=O)ccc3C(=O)[O-])c3ccc(=[N+](C)C)cc-3oc2c1 (some centres unmarked) [$$ 12, [y1,c4,K7(Tam),C9]-chemerin-9] (H-[dY][dF]P[dC][dQ][ξF][dK](X1)[dF][ξC]-OH; disulfide 4-9)
half-life ([2]; human blood plasma): > 24 h | stability in blood plasma [2]: equally stable

SMILES: C[C@@H]1NC(=O)[C@H](Cc2ccccc2)NC(=O)[C@H](CCC(N)=O)NC(=O)[C@H](NC(=O)[C@@H]2CCCN2C(=O)[C@H](Cc2ccccc2)NC(=O)[C@@H](N)Cc2ccc(O)cc2)CCSSC[C@@H](C(=O)O)NC(=O)[C@H](Cc2c[nH]c3ccccc23)NC1=O [$$ 14, [x4,W8,C9]-chemerin-9] (H-YFP[d(hCys)]QFAWC-OH; disulfide 4-9)
EC50 [3]: 158 nM | arrestin 3 recruitment to the CMKLR1 (in words) [3]: accepted; also recorded: no impact | Emax [3]: 97 ± 10% | G protein signaling activity (in words) [1]: increased the activity even more | EC50 ([1]; EC50, COS-7 cells transfected with hCMKLR1_eYFP_GαΔ6qi4myr, normalized to chemerin-9): 3 nM | EC50 [1, 6]: 3.17 nM

SMILES: C[C@@H]1NC(=O)[C@H](Cc2ccccc2)NC(=O)[C@H](CCC(N)=O)NC(=O)[C@H](NC(=O)[C@@H]2CCCN2C(=O)[C@H](Cc2ccccc2)NC(=O)[C@H](N)Cc2ccc(O)cc2)CCSSC[C@@H](C(=O)O)NC(=O)[C@H](Cc2c[nH]c3ccccc23)NC1=O [$$ 15, [y1,x4,W8,C9]-chemerin-9] (H-[dY]FP[d(hCys)]QFAWC-OH; disulfide 4-9)
arrestin 3 recruitment to the CMKLR1 (in words) [3]: no longer able to induce arrestin 3-recruitment; also recorded: completely abolishes arrestin recruitment | G protein signaling activity (in words) [1]: significantly decreased activity | EC50 [1, 6]: 207 nM | arrestin 3 recruitment and internalization of the CMKLR1 [4]: neither internalization of the hCMKLR1 nor arrestin 3 recruitment could be detected

SMILES: C[C@@H]1NC(=O)[C@H](Cc2ccccc2)NC(=O)[C@H](CCC(N)=O)NC(=O)[C@H](NC(=O)[C@@H]2CCCN2C(=O)[C@H](Cc2ccccc2)NC(=O)[C@H](Cc2ccc(O)cc2)NC(=O)CCOCCOCCOCCOCCNC(=O)c2ccc(C(=O)[O-])c(-c3c4ccc(=[N+](C)C)cc-4oc4cc(N(C)C)ccc34)c2)CCSSC[C@@H](C(=O)O)NC(=O)[C@H](Cc2ccccc2)NC1=O [$$ 17, Tam-EG4-[x4,C9]-chemerin-9] ({X1-PEG4}-YFP[d(hCys)]QFAFC-OH; disulfide 4-9)
half-life ([2]; human blood plasma): > 48 h

SMILES: C[C@@H]1NC(=O)[C@H](Cc2ccccc2)NC(=O)[C@H](CCC(N)=O)NC(=O)[C@H](NC(=O)[C@@H]2CCCN2C(=O)[C@H](Cc2ccccc2)NC(=O)[C@H](Cc2ccc(O)cc2)NC(=O)CCOCCOCCOCCOCCNC(=O)c2ccc(C(=O)[O-])c(-c3c4ccc(=[N+](C)C)cc-4oc4cc(N(C)C)ccc34)c2)CCSSC[C@@H](C(=O)O)NC(=O)[C@H](Cc2c[nH]c3ccccc23)NC1=O [$$ 19, Tam-EG4-[x4,W8,C9]-chemerin-9] ({X1-PEG4}-YFP[d(hCys)]QFAWC-OH; disulfide 4-9)
half-life ([2]; human blood plasma): > 48 h

Further lines, with some results ahead:

EC50 [1, 5]: 64 nM | pEC50 ± SEM [1, 5]: 7.192 ± 0.147
SMILES: C[C@@H]1NC(=O)[C@H](Cc2ccccc2)NC(=O)[C@H](CCC(N)=O)NC(=O)[C@H](NC(=O)[C@@H]2CCCN2C(=O)[C@H](Cc2ccccc2)NC(=O)[C@@H](N)Cc2ccc(O)cc2)CSSC[C@@H](C(=O)O)NC(=O)[C@H](Cc2ccccc2)NC1=O [$$ 4, [c4,C9]-chemerin-9, reference compound] (H-YFP[dC]QFAFC-OH; disulfide 4-9)

half-life ([2]; human blood plasma): > 24 h | stability in blood plasma [2]: completely stable
SMILES: C[C@@H]1NC(=O)[C@H](Cc2ccccc2)NC(=O)[C@H](CCC(N)=O)NC(=O)[C@H](NC(=O)[C@@H]2CCCN2C(=O)[C@H](Cc2ccccc2)NC(=O)[C@H](Cc2ccc(O)cc2)NC(=O)c2ccc(C(=O)O)c(-c3c4ccc(=[N+](C)C)cc-4oc4cc(N(C)C)ccc34)c2)CSSC[C@@H](C(=O)O)NC(=O)[C@H](Cc2ccccc2)NC1=O [$$ 5, Tam-[c4,C9]-chemerin-9] (X2-YFP[dC]QFAFC-OH; disulfide 4-9)

EC50 [1]: 62.5 nM
SMILES: NC(=O)CC[C@@H]1NC(=O)[C@H](NC(=O)[C@@H]2CCCN2C(=O)[C@H](Cc2ccccc2)NC(=O)[C@@H](N)Cc2ccc(O)cc2)CSSC[C@@H](C(=O)N[C@@H](Cc2ccccc2)C(=O)N[C@@H](CO)C(=O)O)NC(=O)[C@H](Cc2ccccc2)NC1=O [$$ 6, [c4,C7]-chemerin-9, reference compound] (H-YFP[dC]QFCFS-OH; disulfide 4-7)

pEC50 ± SEM [1, 5]: 7.888 ± 0.130
SMILES: C[C@@H]1NC(=O)[C@H](Cc2ccccc2)NC(=O)[C@H](CCC(N)=O)NC(=O)[C@H](NC(=O)[C@@H]2CCCN2C(=O)[C@H](Cc2ccccc2)NC(=O)[C@@H](N)Cc2ccc(O)cc2)CSCSC[C@@H](C(=O)O)NC(=O)[C@H](Cc2ccccc2)NC1=O [$$ 7, [c4,C9-TA]-chemerin-9] (H-YFP[dC]QFAFC-OH; linker 4-9 via CH2)

stability in blood plasma [2]: completely stable | pEC50 ± SEM [1, 5]: 7.429 ± 0.110
SMILES: C[C@@H]1NC(=O)[C@H](Cc2ccccc2)NC(=O)[C@H](CCC(N)=O)NC(=O)[C@H](NC(=O)[C@@H]2CCCN2C(=O)[C@H](Cc2ccccc2)NC(=O)[C@@H](N)Cc2ccc(O)cc2)CSCSCC[C@@H](C(=O)O)NC(=O)[C@H](Cc2ccccc2)NC1=O [$$ 9, [c4,X9-TA]-chemerin-9] (H-YFP[dC]QFAF[hCys]-OH; linker 4-9 via CH2)

pEC50 ± SEM [1, 5]: 7.553 ± 0.067
SMILES: C[C@@H]1NC(=O)[C@H](Cc2ccccc2)NC(=O)[C@H](CCC(N)=O)NC(=O)[C@H](NC(=O)[C@@H]2CCCN2C(=O)[C@H](Cc2ccccc2)NC(=O)[C@H](N)Cc2ccc(O)cc2)CSCSCC[C@@H](C(=O)O)NC(=O)[C@H](Cc2ccccc2)NC1=O [$$ 11, [y1,c4,X9-TA]-chemerin-9] (H-[dY]FP[dC]QFAF[hCys]-OH; linker 4-9 via CH2)

Emax [3]: 86.8 ± 4%
SMILES: C[C@@H]1NC(=O)[C@H](Cc2ccccc2)NC(=O)[C@H](CCC(N)=O)NC(=O)[C@H](NC(=O)[C@@H]2CCCN2C(=O)[C@H](Cc2ccccc2)NC(=O)[C@@H](N)Cc2ccc(O)cc2)CCSSC[C@@H](C(=O)O)NC(=O)[C@H](Cc2ccccc2)NC1=O [$$ 13, [x4,C9]-chemerin-9] (H-YFP[d(hCys)]QFAFC-OH; disulfide 4-9)
arrestin 3 recruitment to the CMKLR1 (in words) [3]: only slightly shifted EC50 and Emax values; also recorded: slight loss of activity

arrestin 3 recruitment to the CMKLR1 (in words) [3]: accepted; also recorded: no impact | Emax [3]: 102 ± 5%
SMILES: C[C@@H]1NC(=O)[C@H](Cc2ccccc2)NC(=O)[C@H](CCC(N)=O)NC(=O)[C@H](NC(=O)[C@@H]2CCCN2C(=O)[C@H](Cc2ccccc2)NC(=O)[C@H](Cc2ccc(O)cc2)NC(=O)CCOCCOCCOCCOCCN)CCSSC[C@@H](C(=O)O)NC(=O)[C@H](Cc2ccccc2)NC1=O [$$ 16, EG4-[x4,C9]-chemerin-9] (H-[PEG4]YFP[d(hCys)]QFAFC-OH; disulfide 5-10)

EC50 ([3]; EC50, HEK293 cells, CMKLR1-eYFP and Rluc8-arrestin 3, 15 min after agonist addition): 100 nM | Emax [3]: 89 ± 5% | EC50 [1]: 21.1 nM
SMILES: CC(=O)NCC(=O)N[C@@H](Cc1ccccc1)C(=O)N[C@@H](CC(C)C)C(=O)NCC(=O)N[C@@H](Cc1ccc(O)cc1)C(=O)N[C@@H](Cc1ccccc1)C(=O)N1CCC[C@H]1C(=O)N[C@@H]1CCSSC[C@@H](C(=O)O)NC(=O)[C@H](Cc2ccccc2)NC(=O)[C@H](C)NC(=O)[C@H](Cc2ccccc2)NC(=O)[C@H](CCC(N)=O)NC1=O [$$ 20, GFLG-[x4,C9]-chemerin-9] (Ac-GFLGYFP[d(hCys)]QFAFC-OH; disulfide 8-13)
